The target of data set [1] is HSA (Homo sapiens, UniProt P02768). Nature of the data set: chromatographic assay of HSA binding. As to conditions: for Kd: chromatographic HSA binding assay (Hage). The source says:
To assess albumin binding, any assay designed to measure albumin binding can be used. Chromatographic binding assays are especially useful, such as that described by Hage, D S, et al. J (Chromatogr B Biomed Sci Appl. 2000, 739:39-54). Alternatively or in conjunction, binding affinity to albumin can be determined by using surface plasmon resonance. In one method, a BIAcore 200 device (BIAcore Inc.; Piscataway, NJ) is used in combination with a procedure by Lacy, S E, et al. (MAbs, 2015. 7:605-19) as modified herein. Briefly, human and mouse albumin are captured on a CM5 chip using amine coupling at 5000 resonance units. The candidate polypeptides are injected at various concentrations (e.g., 0, 0.625, 1.25, 5, and 10 μM) at a controlled flow rate (e.g., 20 μl/min). The bound peptides are allowed to dissociate for a period of time (e.g., 5 min) before matrix regeneration using 10 mM glycine, pH 3. The signal from an injection passing over an uncoupled cell is subtracted from that of an immobilized cell to generate sensorgrams of the amount of polypeptide bound as a function of time. BIAcore kinetic evaluation software (version 3.1) can be used to determine KD from the association and dissociation rates using a one-to-one binding model. Alternatively or in conjunction, affinity to albumin can be determined using a direct assay, such as described by Nguyen, A, et al. (Protein Eng Des Sel. 2006, 19:291-7). In this method, albumin is immobilized onto high protein-binding capacity polystyrene 96 well plates at a predetermined concentration, such as 2 mg/ml, for a period of time (e.g., overnight) at 4° C. Non-specific binding sites are blocked with binding buffer, and radio-labelled candidate polypeptides are applied to the plates for a period of time, such as 30 minutes, at 25° C. Unbound candidate polypeptides are washed away, and bound candidate polypeptides detected using a radioactivity plate reader.
The two non-natural amino acids (nnAAs 1 and 2; FIG. 1) were synthesized from the corresponding NHS-esters by standard conjugation chemistry (FIG. 1). […]

For data set [2] the following is noted: daily subcutaneous injection, 70-100 mg, 1-2 mg/kg; cited from earlier work.
Data set [3] concerns amber nonsense codon in GFPUV-149UAG, PylRS mutant/tRNACUA^Pyl. Nature of the data set: amber suppression in GFP by PylRS mutant in E. coli, fluorescence plate reader. Type of data set: cell-based. As to conditions: medium with 1 mM nnAA versus control LB medium, best hit from the library. The source says: Since many PylRS mutants have broad substrate specificity, we first screened only a small library of 22 previously evolved PylRS mutants for their ability to incorporate 1 and 2 into green fluorescence protein (GFP) in E coli. The screening was based on the suppression of an amber nonsense codon at a permissive site in a GFP-encoding gene. Briefly, a plasmid, pLei-GFPUV-N149UAG, which contains GFPUV-149UAG and a copy of a tRNACUA^Pyl, was co-transformed into E. coli GeneHogs strain with a plasmid containing a variant of PylRS mutant. Protein expression was carried out in control LB medium and in medium supplemented with 1 mM 1 or 2. After induction of GFP expression and cultivation (12 h), cells were collected, washed, and analyzed using a fluorescence plate reader.

The values below come from patent US11939617B2, “Functionally modified polypeptides and radiobiosynthesis” (Ikaria Inc., priority 2016, dated 2024).

Sequence of HSA (P02768 25-609): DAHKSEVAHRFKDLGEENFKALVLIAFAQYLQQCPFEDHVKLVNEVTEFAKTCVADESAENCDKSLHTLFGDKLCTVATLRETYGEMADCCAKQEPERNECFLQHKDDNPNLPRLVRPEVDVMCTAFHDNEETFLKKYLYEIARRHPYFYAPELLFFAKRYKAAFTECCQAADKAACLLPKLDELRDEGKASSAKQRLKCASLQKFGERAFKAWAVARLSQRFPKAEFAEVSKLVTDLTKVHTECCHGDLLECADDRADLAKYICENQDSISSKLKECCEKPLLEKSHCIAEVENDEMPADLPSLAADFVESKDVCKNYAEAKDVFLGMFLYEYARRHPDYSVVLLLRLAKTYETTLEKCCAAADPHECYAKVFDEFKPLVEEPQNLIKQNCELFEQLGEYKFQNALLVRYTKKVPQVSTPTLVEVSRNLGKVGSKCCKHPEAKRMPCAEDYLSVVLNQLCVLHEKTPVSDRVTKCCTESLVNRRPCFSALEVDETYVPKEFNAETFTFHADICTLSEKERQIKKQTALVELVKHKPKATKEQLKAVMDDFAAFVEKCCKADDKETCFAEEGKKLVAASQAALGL

As usually defined, the Kd is the concentration at which binding is half-saturated. On to `N[C@@H](CCCCNC(=O)CCCc1ccc(I)cc1)C(=O)O` [compound 1], for which the Kd in data set [1] worked out at 7 µM.
Turning to “anakinra: 17 kD therapeutic protein currently prescribed for the treatment of rheumatoid arthritis”, the “time of peak serum concentration after injection” value in data set [2] is recorded as roughly 6 h.
Take `N[C@@H](CCCCNC(=O)CCc1ccc(I)cc1)C(=O)O` [nnAA 2, Nε-(3-(4-iodophenyl)propanoyl)lysine]: in data set [1], the dissociation constant Kd amounted to 204 µM. In data set [1] (statement in words), the albumin binding entry was “binds albumin poorly”. Moreover, the “full-length GFPUV production (fluorescence)” value in data set [3] was “significantly more full-length GFPUV proteins were produced”.
